Source: publication PMC7763418 (Journal of the American Heart Association: Cardiovascular …, 2020)

What was measured:
[1] = system: healthy male participants; assay: Relative stroke volume; format: in vivo, human; settings: esmolol 1.25 mg/kg bolus+[…] iv
[2] = system: healthy male participants; assay: Heart rate, arterial line/ECG recording; format: in vivo, human; settings: days B and C, after 15 min of esmolol 1.25 mg/kg bolus+[…] iv
[3] = system: cardiac beta 1 receptors; settings: esmolol dose used (1.25 mg/kg bolus+[…]); cited from earlier work

COC(=O)CCc1ccc(OCC(O)CNC(C)C)cc1 (stereo not shown) [esmolol]
Reduction of mean stroke volume from −15 minutes to baseline ([1]; day B): 13.7%
Reduction of mean stroke volume from −15 minutes to baseline ([1]; day C, before glucagon): 25.8%
Average heart rate at baseline (0 min) [2]: 58.2 bpm
Cardiac beta 1 receptors blocked [3]: > 85%
